Source: US12594267B2, “Capsid inhibitors for the treatment of HIV” (Gilead Sciences, Inc., priority 2018, dated 2026)

Assay: PK after subcutaneous administration of solutions in dogs
Type: in vivo, Beagle dog
Description: Formulations containing the compound of Formula (Ia) were prepared as aqueous solutions or oral formulations and administered subcutaneously to rats, dogs, cynomolgus monkey, and/or rhesus monkey.
A solution of the compound of Formula (Ia) in 10% ethanol, 13% water, and 77% PEG 200 (400 mg/mL) was prepared. The solution was administered subcutaneously to dogs at a dose of 12 mg/kg and rats at a dose of 50 mg/kg and the pharmacokinetic (PK) profile was determined. […] In both species, plasma concentrations of the compound of Formula (Ia) were maintained above the target trough concentration of 20 nM (corresponding to an IQ of 5) for at least 84 days (12 weeks).
A solution of the compound of Formula (Ia) in 15% water and 85.0 PEG 300 (400 mg/mL) was prepared. The solution was administered subcutaneously to male beagle dogs at a dose level of 12 mg/kg and dose volume of […] and the pharmacokinetic (PK) profile was determined.
A solution of the compound of Formula (a) sodium salt in water and 300 (300 mg/mL) was prepared that contained 22.6% water/50% PEG 300/1.1% NaOH/26.3% Formula (Ia). The solution was administered subcutaneously to male beagle dogs at a dose level of 12 mg/kg and dose volume of […] and the pharmacokinetic (PK) profile was determined.
A 300 mg/ml solution of a compound of Formula (Ia) having 9.8 w/w % water, 65.0 w/w % PEG 300, and 25.2 w/w % of the compound of Formula (Ia) was prepared. The solution was administered subcutaneously to rats at a dose of 50 mg/kg and to dogs at a dose of 12 mg/kg and the pharmacokinetic (PK) profile was determined. […] In the rat, plasma concentrations of the compound of Formula (Ia) were maintained above the target trough concentration of 20 nM for at least 168 days (24 weeks). In the dog, plasma concentrations of the compound of Formula (Ia) were maintained above the target trough concentration of 20 nM for at least 84 days (12 weeks).
(§1) A 150 mg/ml solution of a compound of Formula (Ia) having 27.92 w/w % water, 58.04 w/w % PEG 300, 13.47 w/w % of a compound of Formula (Ia), and 1.1 w/w % NaOH was prepared. The solution was administered subcutaneously to rats at a dose of 50 mg/kg and to dogs at a dose of 12 mg/kg and the pharmacokinetic (PK) profile was determined. […] In the rat, plasma concentrations of the compound of Formula (Ia) were maintained above the target trough concentration of 20 nM for at least 126 days (18 weeks). In the dog, plasma concentrations of the compound of Formula (Ia) were maintained above the target trough concentration of 20 nM for at least 56 days (8 weeks).
as §1, with “300” for “150”, “23.2” for “27.92”, “50.0” for “58.04”, “25.7” for “13.47”
A 50 mg/ml solution of a compound of Formula (Ia) having 30.07 w/w % water, 64.40 w/w % PEG 300, 4.68 w/w % of a sodium salt of the compound of Formula (Ia), and 0.85 w/w % poloxamer 188 was prepared. The solution was administered subcutaneously to rats at a dose of 50 mg/kg and to dogs at a dose of 6 mg/kg and the pharmacokinetic (PK) profile was determined. […] In the rat, plasma concentrations of the compound of Formula (Ia) were maintained above the target trough concentration of 20 nM for at least 28 days (4 weeks). In the dog, plasma concentrations of the compound of Formula (Ia) were maintained above the target trough concentration of 20 nM for at least 14 days (2 weeks). […]

[1] = beagle, dog, plasma, sc, 12 mg/kg, SC 12 mg/kg, 400 mg/mL solution in 10% ethanol, 13% water, 77% PEG 200, mean ± SD, n=3
[2] = dog, SC 12 mg/kg, 150 mg/mL solution (w/w %: 27.92 water, 58.04 PEG 300, 13.47 Formula (Ia), 1.1 NaOH), mean ± SD, n=3

Compound: CC(C)(C#Cc1ccc(-c2ccc(Cl)c3c(NS(C)(=O)=O)nn(CC(F)(F)F)c23)c([C@H](Cc2cc(F)cc(F)c2)NC(=O)Cn2nc(C(F)(F)F)c3c2C(F)(F)[C@@H]2C[C@H]32)n1)S(C)(=O)=O [Formula (Ia), N—((S)-1-(3-(4-chloro-3-(methylsulfonamido)-1-(2,2,2-trifluoroethyl)-1H-indazol-7-yl)-6-(3-methyl-3-(methylsulfonyl)but-1-yn-1-yl)pyridin-2-yl)-2-(3,5-difluorophenyl)ethyl)-2-((3bS,4aR)-5,5-difluoro-3-(trifluoromethyl)-3b,4,4a,5-tetrahydro-1H-cyclopropa[3,4]cyclopenta[1,2-c]pyrazol-1-yl)acetamide]
- AUC(0-t) (beagle, dog, plasma, sc, 12 mg/kg, dog, SC 12 mg/kg, 400 mg/mL solution in 10% ethanol, 13% water, 77% PEG 200, mean ± SD, n=3, read-out: AUC0-140d): 111 ± 14 µM·h
- concentration at 84 d (beagle, dog, plasma, sc, 12 mg/kg, dog, SC 12 mg/kg, 400 mg/mL solution in 10% ethanol, 13% water, 77% PEG 200, mean ± SD, n=3, read-out: C84d): 23.4 ± 5.7 nM
- Cmax [1]: 107 ± 13 nM
- Tmax [1]: 14 days
- Plasma concentration (dog #1, 0 h, SC 12 mg/kg, 400 mg/mL in 15% water/85% PEG 300): BLQ
- Plasma concentration (dog #1, 1.0 h, SC 12 mg/kg, 400 mg/mL in 15% water/85% PEG 300): BLQ
- Plasma concentration (dog #2, 0 h, SC 12 mg/kg, 400 mg/mL in 15% water/85% PEG 300): BLQ
- Plasma concentration (dog #3, 0 h, SC 12 mg/kg, 400 mg/mL in 15% water/85% PEG 300): BLQ
- Time plasma concentrations maintained above the target trough concentration of 20 nM (dog, SC 6 mg/kg, 50 mg/mL solution (w/w %: 30.07 water, 64.40 PEG 300, 4.68 sodium salt of Formula (Ia), 0.85 poloxamer 188)): at least 14 days
- Time plasma concentrations maintained above the target trough concentration of 20 nM (dog, SC 6 mg/kg, 75 mg/mL solution (w/w %: 29.21 water, 62.55 PEG 300, 6.97 sodium salt of Formula (Ia), 1.68 poloxamer 188)): at least 21 days
- Time plasma concentrations maintained above the target trough concentration of 20 nM (dog, SC 6 mg/kg, 100 mg/mL solution (w/w %: 28.36 water, 60.73 PEG 300, 9.23 sodium salt of Formula (Ia), 1.68 poloxamer 188)): at least 14 days
- AUC0-14d (dog, SC 6 mg/kg, 100 mg/mL solution (w/w %: 28.36 water, 60.73 PEG 300, 9.23 sodium salt of Formula (Ia), 1.68 poloxamer 188), mean ± SD, n=3): 104 ± 26 µM·h
- Time plasma concentrations maintained above the target trough concentration of 20 nM (dog, SC 6 mg/kg, 125 mg/mL solution (w/w %: 27.51 water, 58.92 PEG 300, 11.48 sodium salt of Formula (Ia), 2.09 poloxamer 188)): at least 14 days
- Time plasma concentrations maintained above the target trough concentration of 20 nM (dog, SC 6 mg/kg, 150 mg/mL solution (w/w %: 26.6 water, 56.97 PEG 300, 13.39 Formula (Ia), 0.57 NaOH, 2.49 poloxamer 188)): at least 56 days
- Time plasma concentrations maintained above the target trough concentration of 20 nM (dog, SC 6 mg/kg, 300 mg/mL solution (w/w %: 21.97 water, 47.05 PEG 300, 25.21 Formula (Ia), 1.08 NaOH, 4.69 poloxamer 188)): at least 56 days
- AUC0-84d (dog, SC 6 mg/kg, 300 mg/mL solution (w/w %: 21.97 water, 47.05 PEG 300, 25.21 Formula (Ia), 1.08 NaOH, 4.69 poloxamer 188), mean ± SD, n=3): 65.4 ± 21.5 µM·h
- Time plasma concentrations maintained above the target trough concentration of 20 nM (dog, SC 12 mg/kg, 150 mg/mL solution (w/w %: 27.92 water, 58.04 PEG 300, 13.47 Formula (Ia), 1.1 NaOH)): at least 56 days
- AUC0-28d [2]: 137.0 ± 38 µM·h
- AUC0-126d [2]: 196 ± 31 µM·h
- Time plasma concentrations maintained above the target trough concentration of 20 nM (dog, SC 12 mg/kg, 300 mg/mL solution (w/w %: 9.8 water, 65.0 PEG 300, 25.2 Formula (Ia))): at least 84 days
- Time plasma concentrations maintained above the target trough concentration of 20 nM (dog, SC 12 mg/kg, 300 mg/mL solution (w/w %: 23.2 water, 50.0 PEG 300, 25.7 Formula (Ia), 1.1 NaOH)): at least 56 days
- Time plasma concentrations maintained above the target trough concentration of 20 nM (dog, SC 12 mg/kg, 400 mg/mL solution in 10% ethanol, 13% water, 77% PEG 200): at least 84 days
- concentration at 3 h (male, beagle, dog, plasma, sc, 12 mg/kg, dog #1, 3.0 h, SC 12 mg/kg, 400 mg/mL in 15% water/85% PEG 300): 1.2 nM
- concentration at 8 h (male, beagle, dog, plasma, sc, 12 mg/kg, dog #1, 8.0 h, SC 12 mg/kg, 400 mg/mL in 15% water/85% PEG 300): 10.6 nM
- concentration at 24 h (male, beagle, dog, plasma, sc, 12 mg/kg, dog #1, 24.0 h, SC 12 mg/kg, 400 mg/mL in 15% water/85% PEG 300): 19.8 nM
- concentration at 48 h (male, beagle, dog, plasma, sc, 12 mg/kg, dog #1, 48.0 h, SC 12 mg/kg, 400 mg/mL in 15% water/85% PEG 300): 54.6 nM
- concentration at 72 h (male, beagle, dog, plasma, sc, 12 mg/kg, dog #1, 72.0 h, SC 12 mg/kg, 400 mg/mL in 15% water/85% PEG 300): 62.8 nM
- concentration at 96 h (male, beagle, dog, plasma, sc, 12 mg/kg, dog #1, 96.0 h, SC 12 mg/kg, 400 mg/mL in 15% water/85% PEG 300): 58.9 nM
- concentration at 168 h (male, beagle, dog, plasma, sc, 12 mg/kg, dog #1, 168 h, SC 12 mg/kg, 400 mg/mL in 15% water/85% PEG 300): 71.9 nM
